Test results published in US20200405868A1, “GEL-FORMING POLYPEPTIDES” (priority 2018, published 2020).
Where no end group is shown, it is not given here.

Experiment: Compound gel-forming ability in water (visual inspection, tube tapping assay, tilted tube assay);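 also: peptides mixed with de-ionized water at about 22-25 °C, judged after 20 min by eye plus tube tapping (10 taps, moves counted) and 90° tilt mobility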
Assay type: physicochemical
Settings: for gel formation in aqueous solution, 20% / propensity to form gels, chimeric or mutated polypeptides, 20%: 20% w/w; for gel formation in aqueous solution, 11% / propensity to form gels, chimeric or mutated polypeptides, 11% / propensity to form gels, wild-type counterparts, 11%: 11% w/w; for gel formation at 3% w/w: 3% w/w in water; for gel formation at 6% w/w: 6% w/w in water; for gel formation at 11% w/w: 11% w/w in water; for Physical property at 11% w/w: 11% w/w in aqueous solution, room temperature

gel formation in aqueous solution, 20% (Table 3)	Substance	propensity to form gels, chimeric or mutated polypeptides, 20% (Table 5)	gel formation in aqueous solution, 11% (Table 3)	propensity to form gels, chimeric or mutated polypeptides, 11% (Table 5)	gel formation at 6% w/w	gel formation at 11% w/w	gel formation in aqueous solution, 6% (Table 3, 6% w/w)	other results
SS (SS for semisolid gel)	Pal-HSYRPKPQQFF-Sar-L-Met-(02)-NH2 [SEQ ID NO:254]	SS (An ability to form semisolid gel is represented by an SS)	–	–	–	–	–	–
SS (SS for semisolid gel)	Pal-HSY-Nle-cyclo[Asp-His-D-Phe-Arg-Trp-Lys]-NH2 [SEQ ID NO:257]	SS (An ability to form semisolid gel is represented by an SS)	SS (SS for semisolid gel)	SS (An ability to form semisolid gel is represented by an SS)	–	–	–	–
–	VKVKVKVKV(D-Pro)PTKVKVKVKV-miniPEG-RPKPQQFFGLM-NH2 [SEQ ID NO:286]	–	AS/IS (AS/IS for aqueous solution or insoluble)	–	–	–	AS/IS (AS/IS for aqueous solution or insoluble)	–
–	Y-(D-Ala)-GF(D-Leu)-NH2 [SEQ ID NO:22, reference compound]	–	AS/IS (AS/IS for aqueous solution or insoluble)	–	do not form gels	do not form gels	AS/IS (AS/IS for aqueous solution or insoluble)	Physical property at 11% w/w (Table 1): AS/IS; propensity to form gels, wild-type counterparts, 6% (Table 5, 6% w/w): AS/IS; propensity to form gels, wild-type counterparts, 11% (Table 5): AS/IS
–	Pal-SSPHSY-miniPEG-(D-Ala)-(D-(β-naphthyl))-AAW-(D-Phe)-Lys-NH2 [SEQ ID NO:235]	–	SS (SS for semisolid gel)	SS (An ability to form semisolid gel is represented by an SS)	semisolid gel	semisolid gel	SS (SS for semisolid gel)	gel formation at 3% w/w: semisolid gel; gel formation in aqueous solution, 3% (Table 3, 3% w/w): SS (SS for semisolid gel); propensity to form gels, chimeric or mutated polypeptides, 3% (Table 5, 3% w/w): SS (An ability to form semisolid gel is represented by an SS); propensity to form gels, chimeric or mutated polypeptides, 6% (Table 5, 6% w/w): SS (An ability to form semisolid gel is represented by an SS)
SS (SS for semisolid gel)	HAEGTFTSDVSSYLEGQAAK(YSHPSS-Pal)EFIAWLVRGRG [SEQ ID NO:269]	SS (An ability to form semisolid gel is represented by an SS)	SS (SS for semisolid gel)	SS (An ability to form semisolid gel is represented by an SS)	–	–	–	–
–	Pal-KVQKLAHQIYQFTDKD(Aib)APVDPSSPHSY-NH2 [SEQ ID NO:126]	–	–	–	–	–	–	Physical property at 11% w/w (Table 2): SS (SS for semisolid gel)

Substance	gel formation in aqueous solution, 20% (Table 3)	propensity to form gels, chimeric or mutated polypeptides, 20% (Table 5)	gel formation in aqueous solution, 11% (Table 3)	propensity to form gels, chimeric or mutated polypeptides, 11% (Table 5)	gel formation at 6% w/w	gel formation at 11% w/w	gel formation in aqueous solution, 6% (Table 3, 6% w/w)	other results
FTLSLDVPTNIMNLLFNIAKAKNLRAQAAANAHLMAQI-NH2 [SEQ ID NO:10, reference compound]	SS (SS for semisolid gel)	–	SS (SS for semisolid gel)	–	semisolid gel	semisolid gel	–	gel formation at 3% w/w: liquid gel; Physical property at 11% w/w (Table 1): SS (SS for semisolid gel); propensity to form gels, wild-type counterparts, 6% (Table 5, 6% w/w): SS (An ability to form semisolid gel is represented by an SS); propensity to form gels, wild-type counterparts, 11% (Table 5): SS (An ability to form semisolid gel is represented by an SS)
Pal-SSPHSY-miniPEG-SYSMEHFRWGKPVGKKRRPVKVYP-OH [SEQ ID NO:225]	SS (SS for semisolid gel)	–	AS/IS (AS/IS for aqueous solution or insoluble)	–	–	–	–	–
